Article PMC9138994 (Biomolecules, 2022)

Target: T1, human serotonin 5-HT2A receptor (Homo sapiens, UniProt P28223)
T1 construct: host or cells: CHO-K1
Assay: Radioligand displacement assay at 5-HT2A ([3H]-ketanserin, CHO-K1 cells)
Format: binding
Details: CHO-K1 cells expressing human 5-HT2A, read-out: Ki ± SD (n), 5-HT2A

T1 sequence (P28223 whole entry): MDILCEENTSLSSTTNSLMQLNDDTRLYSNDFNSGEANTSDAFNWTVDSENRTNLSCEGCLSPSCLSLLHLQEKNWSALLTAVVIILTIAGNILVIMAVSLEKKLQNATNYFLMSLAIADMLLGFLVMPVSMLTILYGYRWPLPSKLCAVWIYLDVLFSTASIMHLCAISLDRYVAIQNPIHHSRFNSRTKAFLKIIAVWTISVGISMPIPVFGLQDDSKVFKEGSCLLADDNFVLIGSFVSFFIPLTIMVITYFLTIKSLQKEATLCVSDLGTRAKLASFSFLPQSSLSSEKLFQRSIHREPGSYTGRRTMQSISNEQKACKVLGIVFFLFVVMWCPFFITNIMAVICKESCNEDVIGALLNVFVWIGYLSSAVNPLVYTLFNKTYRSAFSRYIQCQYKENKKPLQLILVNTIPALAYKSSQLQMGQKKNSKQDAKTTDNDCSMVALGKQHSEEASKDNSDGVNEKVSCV

## CN1CCC(N(Cc2ccc(F)cc2)C(=O)NCc2ccc(OCCCN3CCCCC3)cc2)CC1 [ST-2300, 1-(4-Fluorobenzyl)-1-(1-methylpiperidin-4-yl)-3-{4-[3-(piperidin-1-yl)propoxy]benzyl}urea]
  Ki: 1.3 ± 0.331 µM
